# Source: patent EP0377044B1, “PROTECTIVE AGENT FOR RADIATION HAZARD” (MITSUI TOATSU CHEMICALS, Inc., priority 1988, dated 1989)
# Square brackets hold non-standard residues; d marks the D form. Peptide text beside a SMILES is read from it. pGlu = O=C1CC[C@@H](C(=O)O)N1
# How the values were obtained:
# [1] = system: mice irradiated with 800R X-rays; assay: Survival of mice after whole body irradiation with 800R X-rays; assay type: in vivo, C3H/He mice; details: for The number of days and survivals after X-radiation 10 (days) / The number of days and survivals after X-radiation 11 (days) / The number of days and survivals after X-radiation 12 (days) / The number of days and survivals after X-radiation 13 (days) / The number of days and survivals after X-radiation 14 (days) / The number of days and survivals after X-radiation 15 (days) / The number of days and survivals after X-radiation 16 (days) / The number of days and survivals after X-radiation 17 (days) / The number of days and survivals after X-radiation 18 (days) / The number of days and survivals after X-radiation 19 (days) / The number of days and survivals after X-radiation 20 (days) / The number of days and survivals after X-radiation 25 (days) / The number of days and survivals after X-radiation 30 (days): 14 days; for The number of days and survivals after X-radiation 10 (days): day 10, 15 animals used; for The number of days and survivals after X-radiation 11 (days): day 11, 15 animals used; for The number of days and survivals after X-radiation 12 (days): day 12, 15 animals used; for The number of days and survivals after X-radiation 13 (days): day 13, 15 animals used; for The number of days and survivals after X-radiation 14 (days): day 14, 15 animals used; for The number of days and survivals after X-radiation 15 (days): day 15, 15 animals used; for The number of days and survivals after X-radiation 16 (days): day 16, 15 animals used; for The number of days and survivals after X-radiation 17 (days): day 17, 15 animals used; for The number of days and survivals after X-radiation 18 (days): day 18, 15 animals used; for The number of days and survivals after X-radiation 19 (days): day 19, 15 animals used; for The number of days and survivals after X-radiation 20 (days): day 20, 15 animals used; for The number of days and survivals after X-radiation 25 (days): day 25, 15 animals used; for The number of days and survivals after X-radiation 30 (days): day 30, 15 animals used
# Experimental: Male, 10 week-old C3H/He mice were used and groups of 10 - 15 animals each were prepared.
# The mice were subjected to whole body irradiation for 8 minutes using a X-radiation unit (manufactured by Shimazu Seisaku-sho, Shin-Ai 250 II). These animals received, once per day, subcutaneous administration of 100 µg of FTS·CH₃COOH·2H₂O as used in Example 1 for consecutive 14 days. For a pre-administered group, the administration started two days before the irradiation. For a post-administered group, the first administration was effected immediately after the irradiation. As control groups, one group which received only once subcutaneous administration of 1 KE of Picibanil immediately after the irradiation and another group which received every day administration of physiological saline were prepared.
# [2] = system: Wister rats; assay: Toxicity test, repeated subcutaneous administration to rats; assay type: in vivo
# Text: Thus, the medicament of the present invention is a safe medicament of extremely low toxicity and can be administered for a long period of time.
# [3] = post-administration 100 µg s.c. once per day, from immediately after irradiation
# [4] = pre-administration 100 µg s.c. once per day, from two days before irradiation
smiles,measurement,setting,value
"C[C@H](NC(=O)[C@@H]1CCC(=O)N1)C(=O)N[C@@H](CCCCN)C(=O)N[C@@H](CO)C(=O)N[C@@H](CCC(N)=O)C(=O)NCC(=O)NCC(=O)N[C@@H](CO)C(=O)N[C@@H](CC(N)=O)C(=O)O [medicament, pGlu-Ala-Lys-Ser-Gln-Gly-Gly-Ser-Asn] ([pGlu]AKSQGGSN-OH)",dying of mice due to irradiation,"[1]; 100 µg s.c. once per day for 14 days, summary of Table 1",clearly prevents or inhibits the dying of mice due to irradiation
same,The number of days and survivals after X-radiation 10 (days),[1]; [3],15
same,The number of days and survivals after X-radiation 11 (days),[1]; [3],15
same,The number of days and survivals after X-radiation 12 (days),[1]; [3],15
same,The number of days and survivals after X-radiation 13 (days),[1]; [3],14
same,The number of days and survivals after X-radiation 14 (days),[1]; [3],13
same,The number of days and survivals after X-radiation 15 (days),[1]; [3],10
same,The number of days and survivals after X-radiation 16 (days),[1]; [3],8
same,The number of days and survivals after X-radiation 17 (days),[1]; [3],6
same,The number of days and survivals after X-radiation 18 (days),[1]; [3],6
same,The number of days and survivals after X-radiation 19 (days),[1]; [3],6
same,The number of days and survivals after X-radiation 20 (days),[1]; [3],6
same,The number of days and survivals after X-radiation 25 (days),[1]; [3],5
same,The number of days and survivals after X-radiation 30 (days),[1]; [3],5
same,The number of days and survivals after X-radiation 10 (days),[1]; [4],15
same,The number of days and survivals after X-radiation 11 (days),[1]; [4],15
same,The number of days and survivals after X-radiation 12 (days),[1]; [4],15
same,The number of days and survivals after X-radiation 13 (days),[1]; [4],15
same,The number of days and survivals after X-radiation 14 (days),[1]; [4],15
same,The number of days and survivals after X-radiation 15 (days),[1]; [4],14
same,The number of days and survivals after X-radiation 16 (days),[1]; [4],13
same,The number of days and survivals after X-radiation 17 (days),[1]; [4],11
same,The number of days and survivals after X-radiation 18 (days),[1]; [4],11
same,The number of days and survivals after X-radiation 19 (days),[1]; [4],11
same,The number of days and survivals after X-radiation 20 (days),[1]; [4],9
same,The number of days and survivals after X-radiation 25 (days),[1]; [4],9
same,The number of days and survivals after X-radiation 30 (days),[1]; [4],9
same,"toxicity (external behavior observation, biochemical diagnosis of sera, pathological anatomy)","[2]; 30 mg/kg subcutaneously every day for consecutive 21 days, rats",no abnormal symptom was found in external behavior observation and biochemical diagnosis of sera and in a result of pathological anatomy
same,toxicity,"[2]; 30 mg/kg subcutaneously for consecutive 21 days, ten Wister rats of 5 weeks old",No toxicity was observed
